Experimental data from the supplement of paper PMC10307832.

Assays:
Experiment in all cases: relative viability (nuclei count vs DMSO), 5 days (fraction); higher = more cells survive
[1] = compound: O[C@@H](COc1cccc2ncccc12)CN1CCN([C@@H]2c3ccccc3[C@@H]3[C@H](c4ccccc42)C3(F)F)CC1 [Zosuquidar] + CC1(C)CCC(c2ccc(Cl)cc2)=C(CN2CCN(c3ccc(C(=O)NS(=O)(=O)c4ccc(N[C@H](CCN5CCOCC5)CSc5ccccc5)c(S(=O)(=O)C(F)(F)F)c4)cc3)CC2)C1 [Navitoclax] (partner 0.5 µM)
Outline: (§1)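 Each reported value is a median over duplicate plates. It expresses relative viability: treated-well nuclei count divided by vehicle-well nuclei count. Lung cancer cell lines in 1536-well plates were dosed by pin tool a day after seeding, alone with one drug or with a fixed anchor-drug dose plus five library-drug doses (not always all listed) in √10 steps, and nuclei were counted after 5 days.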

[2] = compound: C1=CC(=CC=C1NC(=S)NNC2=C(C=C(C=C2[N+](=O)[O-])C(F)(F)F)[N+](=O)[O-])F [Kobe2602] + CC(=O)c1c(C)c2cnc(Nc3ccc(N4CCNCC4)cn3)nc2n(C2CCCC2)c1=O [Palbociclib] (partner 0.5 µM)
Outline: as §1

[3] = compound: O[C@@H](COc1cccc2ncccc12)CN1CCN([C@@H]2c3ccccc3[C@@H]3[C@H](c4ccccc42)C3(F)F)CC1 [Zosuquidar] + NC(=O)Nc1cc(-c2cccc(F)c2)sc1C(=O)N[C@H]1CCCNC1 [AZD7762] (partner 0.2 µM)
Outline: as §1

[4] = compound: COc1cc2nccc(Oc3ccc(NC(=O)C4(C(=O)Nc5ccc(F)cc5)CC4)cc3)c2cc1OC [Cabozantinib] + Cc1cc(Nc2cc(N3CCN(C)CC3)nc(Sc3ccc(NC(=O)C4CC4)cc3)n2)n[nH]1 [Tozasertib] (partner 0.1 µM)
Outline: as §1

Row | Cell Line | relative viability ([1]; first compound 0.01 µM) | relative viability ([1]; first compound 0.03162 µM) | relative viability ([1]; first compound 0.1 µM) | relative viability ([1]; first compound 0.3162 µM) | relative viability ([1]; first compound 1 µM) | relative viability ([2]; first compound 0.2 µM) | relative viability ([2]; first compound 0.6325 µM) | relative viability ([2]; first compound 2 µM) | relative viability ([2]; first compound 6.325 µM) | relative viability ([2]; first compound 20 µM) | relative viability ([3]; first compound 0.01 µM) | relative viability ([3]; first compound 0.03162 µM) | relative viability ([3]; first compound 0.1 µM) | relative viability ([3]; first compound 0.3162 µM) | relative viability ([3]; first compound 1 µM) | relative viability ([4]; first compound 0.02 µM) | relative viability ([4]; first compound 0.06325 µM) | relative viability ([4]; first compound 0.2 µM) | relative viability ([4]; first compound 0.6325 µM) | relative viability ([4]; first compound 2 µM)
1 | HCC-366 | 0.97 | 1.18 | 1.02 | 1.01 | 1.09 | 0.377 | 0.344 | 0.35 | 0.384 | 0.395 | 0.23 | 0.227 | 0.285 | 0.369 | 0.298 | 0.705 | 0.108 | 0.101 | 0.065 | 0.0583
2 | IA-LM | 0.803 | 0.83 | 1.02 | 0.848 | 0.753 | – | – | – | – | – | – | – | – | – | – | – | – | – | – | –
3 | LCLC-103H | – | – | – | – | – | 0.504 | 0.518 | 0.537 | 0.539 | 0.491 | 0.793 | 0.76 | 0.672 | 0.755 | 0.809 | 0.552 | 0.471 | 0.474 | 0.486 | 0.391
4 | NCI-H358 | – | – | – | – | – | 0.14 | 0.128 | 0.142 | 0.144 | 0.138 | 0.55 | 0.541 | 0.492 | 0.503 | 0.43 | 0.106 | 0.0894 | 0.103 | 0.0924 | 0.108
5 | NCI-H520 | 1.16 | 1.15 | 0.986 | 1.03 | 1.02 | 0.239 | 0.217 | 0.249 | 0.231 | 0.205 | – | – | – | – | – | 0.52 | 0.442 | 0.432 | 0.392 | 0.386
6 | NCI-H522 | – | – | – | – | – | 1.13 | 1.1 | 0.915 | 1.11 | 0.993 | 0.993 | 0.928 | 1.05 | 0.807 | 0.984 | 0.612 | 0.535 | 0.502 | 0.614 | 0.511
7 | NCI-H596 | 1.04 | 1.05 | 0.861 | 0.982 | 0.972 | – | – | – | – | – | 0.974 | 1.14 | 0.958 | 1.25 | 1.28 | 0.95 | 0.8 | 0.924 | 0.905 | 0.767
8 | NCI-H650 | – | – | – | – | – | 0.31 | 0.357 | 0.344 | 0.402 | 0.372 | 0.944 | 0.801 | 0.897 | 1.31 | 0.898 | – | 0.746 | 0.756 | 0.789 | 0.706
9 | NCI-H661 | – | – | – | – | – | 0.405 | 0.416 | 0.428 | 0.414 | 0.475 | – | – | – | – | – | 0.374 | 0.361 | 0.388 | 0.393 | 0.375
10 | NCI-H1299 | 1.06 | 1.02 | 1.03 | 1.01 | 1.04 | – | – | – | – | – | – | – | – | – | – | – | – | – | – | –
11 | NCI-H1623 | – | – | – | – | – | – | – | – | – | – | – | – | – | – | – | 0.4 | 0.42 | 0.427 | 0.443 | 0.455
12 | NCI-H1648 | – | – | – | – | – | 0.237 | 0.275 | 0.248 | 0.228 | 0.283 | 0.633 | 1.13 | 0.671 | 0.538 | 0.594 | 0.704 | 0.658 | 0.51 | 0.59 | 0.385
